Measurements taken from PubChem BioAssay AID1963863 (Molecular Pharmacology Branch, DTP, NCI, 2024).

Test system: 931267-113-T-J1-PDC KRAS spheroid with HUVEC/MSC, viability
Assay: Anticancer human tumor 931267-113-T-J1-PDC patient-derived colon adenocarcinoma cell line growth inhibition [KRAS2]
Settings: for viability, T/C: stronger effect = lower value
How it was run: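 KRAS-mutant tumor cells were grown as spheroids with HUVEC endothelial cells and human MSCs as stroma. Targeted agents were tested alone and with KRAS pathway inhibitors. Doses started at or near clinical Cmax, or 10 microM, descending half-log.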

[1] = curve of first compound, second compound 0.1 µM
[2] = curve of first compound, second compound 0.316 µM
[3] = curve of first compound, second compound 1 µM
[4] = curve of first compound, second compound 3.16 µM
[5] = curve of first compound, second compound 10 µM
[6] = second compound 0.1 µM, first compound 0.0316 µM
[7] = second compound 0.1 µM, first compound 0.1 µM
[8] = second compound 0.1 µM, first compound 0.316 µM
[9] = second compound 0.1 µM, first compound 1 µM
[10] = second compound 0.1 µM, first compound 3.16 µM
[11] = second compound 0.1 µM, first compound 10 µM
[12] = second compound 0.316 µM, first compound 0.0316 µM
[13] = second compound 0.316 µM, first compound 0.1 µM
[14] = second compound 0.316 µM, first compound 0.316 µM
[15] = second compound 0.316 µM, first compound 1 µM
[16] = second compound 0.316 µM, first compound 3.16 µM
[17] = second compound 0.316 µM, first compound 10 µM
[18] = second compound 1 µM, first compound 0.0316 µM
[19] = second compound 1 µM, first compound 0.1 µM
[20] = second compound 1 µM, first compound 0.316 µM
[21] = second compound 1 µM, first compound 1 µM
[22] = second compound 1 µM, first compound 3.16 µM
[23] = second compound 1 µM, first compound 10 µM
[24] = second compound 3.16 µM, first compound 0.0316 µM
[25] = second compound 3.16 µM, first compound 0.1 µM
[26] = second compound 3.16 µM, first compound 0.316 µM
[27] = second compound 3.16 µM, first compound 1 µM
[28] = second compound 3.16 µM, first compound 3.16 µM
[29] = second compound 3.16 µM, first compound 10 µM
[30] = second compound 10 µM, first compound 0.0316 µM
[31] = second compound 10 µM, first compound 0.1 µM
[32] = second compound 10 µM, first compound 0.316 µM
[33] = second compound 10 µM, first compound 1 µM
[34] = second compound 10 µM, first compound 3.16 µM
[35] = second compound 10 µM, first compound 10 µM
[36] = second compound 0.1 µM, first compound 0.01 µM
[37] = second compound 0.316 µM, first compound 0.01 µM
[38] = second compound 1 µM, first compound 0.01 µM
[39] = second compound 3.16 µM, first compound 0.01 µM
[40] = second compound 10 µM, first compound 0.01 µM
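Also: compound exposure lasted 7 days before the readout.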
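For viability, T/C in this document: 100% = DMSO vehicle control viability.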

## COC(=O)c1ccc2c(C(=Nc3ccc(N(C)C(=O)CN4CCN(C)CC4)cc3)c3ccccc3)c(O)[nH]c2c1 + CC1OCC2(CCN(c3cnc(Sc4ccnc(N)c4Cl)c(N)n3)CC2)C1N
[1]
  IC50: 700 nM
[2]
  IC50: 251 nM
[3]
  IC50: < 31.6 nM
[4]
  IC50: < 31.6 nM
[5]
  IC50: < 31.6 nM
[6]
  viability, T/C: 69.4%
[7]
  viability, T/C: 68.6%
[8]
  viability, T/C: 57.1%
[9]
  viability, T/C: 44.4%
[10]
  viability, T/C: 0.37%
[11]
  viability, T/C: 0.35%
[12]
  viability, T/C: 63.5%
[13]
  viability, T/C: 67.5%
[14]
  viability, T/C: 38.7%
[15]
  viability, T/C: 34.3%
[16]
  viability, T/C: 0.32%
[17]
  viability, T/C: 0.28%
[18]
  viability, T/C: 51.2%
[19]
  viability, T/C: 43.6%
[20]
  viability, T/C: 44%
[21]
  viability, T/C: 4.05%
[22]
  viability, T/C: 0.33%
[23]
  viability, T/C: 0.32%
[24]
  viability, T/C: 48.1%
[25]
  viability, T/C: 37%
[26]
  viability, T/C: 25%
[27]
  viability, T/C: 2.45%
[28]
  viability, T/C: 0.48%
[29]
  viability, T/C: 0.38%
[30]
  viability, T/C: 37.6%
[31]
  viability, T/C: 32.4%
[32]
  viability, T/C: 13.2%
[33]
  viability, T/C: 0.77%
[34]
  viability, T/C: 0.35%
[35]
  viability, T/C: 0.45%

## CN(C)C/C=C/C(=O)Nc1cc2c(Nc3ccc(F)c(Cl)c3)ncnc2cc1O[C@H]1CCOC1
Compound 0.000316 µM
  viability, T/C: 94.5% [middle of 5 runs]
Compound 0.01 µM
  viability, T/C: 79.1% [middle of 5 runs]
Compound 0.1 µM
  viability, T/C: 79% [middle of 5 runs]
Curve of compound
  IC50: > 100 nM

## CC(C)n1nc(-c2ccc3oc(N)nc3c2)c2c(N)ncnc21
Compound 0.000316 µM
  viability, T/C: 90.9% [middle of 5 runs]
Compound 0.001 µM
  viability, T/C: 92.8% [middle of 5 runs]
Compound 0.00316 µM
  viability, T/C: 66.5% [middle of 5 runs]
Compound 0.0316 µM
  viability, T/C: 26.9% [middle of 5 runs]
Compound 0.1 µM
  viability, T/C: 23.9% [middle of 5 runs]

## CC(=O)OC12COC1CC(O)C1(C)C(=O)C(O)C3=C(C)C(OC(=O)C(O)C(NC(=O)OC(C)(C)C)c4ccccc4)CC(O)(C(OC(=O)c4ccccc4)C21)C3(C)C (stereo not given) + CC1OCC2(CCN(c3cnc(Sc4ccnc(N)c4Cl)c(N)n3)CC2)C1N
[1]
  IC50: > 3160 nM
[2]
  IC50: > 3160 nM
[3]
  IC50: > 3160 nM
[4]
  IC50: 289 nM
[5]
  IC50: 278 nM
[36]
  viability, T/C: 88.4%
[6]
  viability, T/C: 90.5%
[7]
  viability, T/C: 74.8%
[8]
  viability, T/C: 80%
[9]
  viability, T/C: 86.2%
[10]
  viability, T/C: 91.4%
[37]
  viability, T/C: 74.8%
[12]
  viability, T/C: 90.5%
[13]
  viability, T/C: 64.9%
[14]
  viability, T/C: 65.4%
[15]
  viability, T/C: 78.6%
[16]
  viability, T/C: 58.5%
[38]
  viability, T/C: 95.2%
[18]
  viability, T/C: 111%
[19]
  viability, T/C: 108%
[20]
  viability, T/C: 82.8%
[21]
  viability, T/C: 79.5%
[22]
  viability, T/C: 93.2%
[39]
  viability, T/C: 52.3%
[24]
  viability, T/C: 74.3%
[25]
  viability, T/C: 53%
[26]
  viability, T/C: 50.6%
[27]
  viability, T/C: 48.9%
[28]
  viability, T/C: 49.7%
[40]
  viability, T/C: 59%
[30]
  viability, T/C: 63.4%
[31]
  viability, T/C: 66.8%
[32]
  viability, T/C: 38%
[33]
  viability, T/C: 50.4%
[34]
  viability, T/C: 56.6%

## COc1cc(Nc2ncc3c(n2)-c2ccc(Cl)cc2C(c2c(F)cccc2OC)=NC3)ccc1C(=O)O
Compound 0.0316 µM
  viability, T/C: 83.6% [middle of 5 runs]
Compound 0.1 µM
  viability, T/C: 79.6% [middle of 5 runs]
Compound 0.316 µM
  viability, T/C: 79.4% [middle of 5 runs]
Compound 1 µM
  viability, T/C: 83.3% [middle of 5 runs]
Compound 3.16 µM
  viability, T/C: 85.9% [middle of 5 runs]
Compound 10 µM
  viability, T/C: 72.5% [middle of 5 runs]
Curve of compound
  IC50: > 10000 nM

## CC(C)NCC(C(=O)N1CCN(c2ncnc3c2C(C)CC3O)CC1)c1ccc(Cl)cc1 (stereo not given) + C=CC(=O)N1CCN(c2nc(=O)n(-c3c(C)ccnc3C(C)C)c3nc(-c4c(O)cccc4F)c(F)cc23)C(C)C1
[1]
  IC50: 6740 nM
[2]
  IC50: 5610 nM
[3]
  IC50: 4630 nM
[4]
  IC50: 6030 nM
[5]
  IC50: 1810 nM
[6]
  viability, T/C: 109%
[7]
  viability, T/C: 97.2%
[8]
  viability, T/C: 85.8%
[9]
  viability, T/C: 89.1%
[10]
  viability, T/C: 71.7%
[11]
  viability, T/C: 38.5%
[12]
  viability, T/C: 95.5%
[13]
  viability, T/C: 83.2%
[14]
  viability, T/C: 80.2%
[15]
  viability, T/C: 75.1%
[16]
  viability, T/C: 62.5%
[17]
  viability, T/C: 38.2%
[18]
  viability, T/C: 95.9%
[19]
  viability, T/C: 96%
[20]
  viability, T/C: 76.8%
[21]
  viability, T/C: 71.2%
[22]
  viability, T/C: 68%
[23]
  viability, T/C: 28.8%
[24]
  viability, T/C: 83.7%
[25]
  viability, T/C: 90.6%
[26]
  viability, T/C: 80.6%
[27]
  viability, T/C: 79.1%
[28]
  viability, T/C: 64.7%
[29]
  viability, T/C: 38.3%
[30]
  viability, T/C: 81.4%
[31]
  viability, T/C: 71.4%
[32]
  viability, T/C: 70.5%
[33]
  viability, T/C: 49.7%
[34]
  viability, T/C: 50.7%
[35]
  viability, T/C: 22.4%

## CN(C)C/C=C/C(=O)Nc1cc2c(Nc3ccc(F)c(Cl)c3)ncnc2cc1O[C@H]1CCOC1 + CC1OCC2(CCN(c3cnc(Sc4ccnc(N)c4Cl)c(N)n3)CC2)C1N
[1]
  IC50: > 100 nM
[2]
  IC50: > 100 nM
[3]
  IC50: > 100 nM
[4]
  IC50: < 0.316 nM
[5]
  IC50: > 100 nM
Second compound 0.1 µM, first compound 0.000316 µM
  viability, T/C: 80.6%
Second compound 0.1 µM, first compound 0.001 µM
  viability, T/C: 77.1%
Second compound 0.1 µM, first compound 0.00316 µM
  viability, T/C: 58.5%
[36]
  viability, T/C: 73.5%
[6]
  viability, T/C: 84.6%
[7]
  viability, T/C: 69%
Second compound 0.316 µM, first compound 0.000316 µM
  viability, T/C: 66.8%
Second compound 0.316 µM, first compound 0.001 µM
  viability, T/C: 70%
Second compound 0.316 µM, first compound 0.00316 µM
  viability, T/C: 65.5%
[37]
  viability, T/C: 62.6%
[12]
  viability, T/C: 67.4%
[13]
  viability, T/C: 80.4%
Second compound 1 µM, first compound 0.000316 µM
  viability, T/C: 84.4%
Second compound 1 µM, first compound 0.001 µM
  viability, T/C: 77.4%
Second compound 1 µM, first compound 0.00316 µM
  viability, T/C: 77%
[38]
  viability, T/C: 71.4%
[18]
  viability, T/C: 93.5%
[19]
  viability, T/C: 90.8%
Second compound 3.16 µM, first compound 0.000316 µM
  viability, T/C: 34.6%
Second compound 3.16 µM, first compound 0.001 µM
  viability, T/C: 48.8%
Second compound 3.16 µM, first compound 0.00316 µM
  viability, T/C: 49.1%
[39]
  viability, T/C: 49.6%
[24]
  viability, T/C: 57.7%
[25]
  viability, T/C: 49.4%
Second compound 10 µM, first compound 0.000316 µM
  viability, T/C: 90.2%
Second compound 10 µM, first compound 0.001 µM
  viability, T/C: 71.6%
Second compound 10 µM, first compound 0.00316 µM
  viability, T/C: 68.4%
[40]
  viability, T/C: 71.5%
[30]
  viability, T/C: 97.1%
[31]
  viability, T/C: 93.7%

## CC(=O)OC12COC1CC(O)C1(C)C(=O)C(O)C3=C(C)C(OC(=O)C(O)C(NC(=O)OC(C)(C)C)c4ccccc4)CC(O)(C(OC(=O)c4ccccc4)C21)C3(C)C (stereo not given)
Compound 0.0316 µM
  viability, T/C: 91.1% [middle of 5 runs]
Compound 0.1 µM
  viability, T/C: 84.7% [middle of 5 runs]
Compound 0.316 µM
  viability, T/C: 86.2% [middle of 5 runs]
Curve of compound
  IC50: > 3160 nM
